Key:
Assay in all cases: radiometric filter-binding kinase assay, Kinase HotSpot
Conditions in all cases: compound 0.5 µM; ATP 10 µM
[1] = target: CDK4 CCND3 (human) (UniProt P30281+P11802)
[2] = target: NEK2 (human) (UniProt P51955)
[3] = target: MAP2K1 (human) (UniProt Q02750)
[4] = target: MARK1 (human) (UniProt Q9P0L2)
[5] = target: ABL2 (human) (UniProt P42684)
[6] = target: CHUK (human) (UniProt O15111)
[7] = target: RIPK2 (human) (UniProt O43353)
[8] = target: CDK9 CCNK (human) (UniProt O75909+P50750)
[9] = target: CSNK1G1 (human) (UniProt Q9HCP0)
[10] = target: IKBKB (human) (UniProt O14920)
[11] = target: TYRO3 (human) (UniProt Q06418)
[12] = target: BLK (human) (UniProt P51451)
Chain of BLK (human) (P51451 whole entry, looked up): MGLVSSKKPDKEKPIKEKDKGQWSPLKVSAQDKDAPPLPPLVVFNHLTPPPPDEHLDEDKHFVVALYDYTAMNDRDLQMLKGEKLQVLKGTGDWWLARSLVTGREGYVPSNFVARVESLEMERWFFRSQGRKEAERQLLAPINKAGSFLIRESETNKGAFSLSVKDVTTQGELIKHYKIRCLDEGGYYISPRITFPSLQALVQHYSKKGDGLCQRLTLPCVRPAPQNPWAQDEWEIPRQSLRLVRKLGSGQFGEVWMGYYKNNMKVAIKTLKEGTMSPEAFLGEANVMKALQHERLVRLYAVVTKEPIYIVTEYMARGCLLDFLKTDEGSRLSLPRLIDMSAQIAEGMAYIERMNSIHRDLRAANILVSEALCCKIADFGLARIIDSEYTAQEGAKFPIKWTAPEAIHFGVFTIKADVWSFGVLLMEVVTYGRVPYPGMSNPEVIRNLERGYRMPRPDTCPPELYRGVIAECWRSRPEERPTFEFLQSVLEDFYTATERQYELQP

[13] = target: LRRK2 (human) (UniProt Q5S007)
[14] = target: MAP4K4 (human) (UniProt O95819)
[15] = target: PRKCH (human) (UniProt P24723)
[16] = target: SGK3 (human) (UniProt Q96BR1)
[17] = target: PIM2 (human) (UniProt Q9P1W9)
[18] = target: CDK1 CCNB1 (human) (UniProt P06493+P14635)
[19] = target: SRPK1 (human) (UniProt Q96SB4)
[20] = target: EPHA3 (human) (UniProt P29320)
Chain of EPHA3 (human) (P29320 whole entry, looked up): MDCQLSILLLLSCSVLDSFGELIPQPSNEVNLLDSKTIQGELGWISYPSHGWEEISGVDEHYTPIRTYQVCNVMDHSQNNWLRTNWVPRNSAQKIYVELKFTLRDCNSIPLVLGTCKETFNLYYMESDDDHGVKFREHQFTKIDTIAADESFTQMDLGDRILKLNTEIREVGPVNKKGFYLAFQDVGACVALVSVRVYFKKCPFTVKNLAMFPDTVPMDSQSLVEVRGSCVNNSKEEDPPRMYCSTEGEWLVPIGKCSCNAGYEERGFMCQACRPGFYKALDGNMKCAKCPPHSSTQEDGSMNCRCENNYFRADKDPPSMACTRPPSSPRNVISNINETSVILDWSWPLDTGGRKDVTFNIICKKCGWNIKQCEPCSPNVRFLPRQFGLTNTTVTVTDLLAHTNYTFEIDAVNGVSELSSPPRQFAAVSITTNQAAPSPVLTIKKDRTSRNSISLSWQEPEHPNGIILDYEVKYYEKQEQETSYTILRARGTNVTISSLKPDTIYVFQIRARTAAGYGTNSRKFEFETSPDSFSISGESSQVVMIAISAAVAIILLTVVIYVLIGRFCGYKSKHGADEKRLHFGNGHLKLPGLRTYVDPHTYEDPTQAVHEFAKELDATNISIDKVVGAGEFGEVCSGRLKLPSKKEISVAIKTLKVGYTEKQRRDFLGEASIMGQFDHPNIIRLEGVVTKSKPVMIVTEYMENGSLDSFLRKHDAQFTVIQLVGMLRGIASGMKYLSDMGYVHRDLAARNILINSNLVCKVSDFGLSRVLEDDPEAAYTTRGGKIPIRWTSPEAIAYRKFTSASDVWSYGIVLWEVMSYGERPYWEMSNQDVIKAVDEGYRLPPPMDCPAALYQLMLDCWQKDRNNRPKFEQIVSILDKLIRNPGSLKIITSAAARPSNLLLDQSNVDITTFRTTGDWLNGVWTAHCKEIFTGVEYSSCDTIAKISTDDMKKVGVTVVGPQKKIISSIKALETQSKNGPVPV

[21] = target: NUAK2 (human) (UniProt Q9H093)
[22] = target: NTRK2 (human) (UniProt Q16620)
[23] = target: MKNK2 (human) (UniProt Q9HBH9)
[24] = target: ACVR1B (human) (UniProt P36896)
[25] = target: PLK2 (human) (UniProt Q9NYY3)
Chain of PLK2 (human) (Q9NYY3 whole entry, looked up): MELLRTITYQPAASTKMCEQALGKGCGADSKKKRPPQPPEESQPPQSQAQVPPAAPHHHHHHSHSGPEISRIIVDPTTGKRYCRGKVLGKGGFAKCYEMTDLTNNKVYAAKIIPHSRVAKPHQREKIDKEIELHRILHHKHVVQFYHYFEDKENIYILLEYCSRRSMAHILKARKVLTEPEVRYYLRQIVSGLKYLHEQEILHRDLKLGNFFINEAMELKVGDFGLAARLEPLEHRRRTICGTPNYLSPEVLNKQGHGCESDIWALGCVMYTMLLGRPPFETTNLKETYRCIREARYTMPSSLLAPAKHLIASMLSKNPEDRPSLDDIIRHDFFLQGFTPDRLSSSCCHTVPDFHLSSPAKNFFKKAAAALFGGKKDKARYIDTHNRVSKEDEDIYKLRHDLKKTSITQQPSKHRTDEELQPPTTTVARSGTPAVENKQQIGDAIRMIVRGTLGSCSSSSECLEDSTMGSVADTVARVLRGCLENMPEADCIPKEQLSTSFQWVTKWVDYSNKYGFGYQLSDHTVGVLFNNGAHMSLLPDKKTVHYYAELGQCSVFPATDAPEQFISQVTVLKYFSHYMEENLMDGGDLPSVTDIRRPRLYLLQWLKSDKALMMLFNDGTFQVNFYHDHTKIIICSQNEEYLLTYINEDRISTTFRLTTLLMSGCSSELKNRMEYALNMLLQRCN

[26] = target: FGR (human) (UniProt P09769)
[27] = target: GRK4 (human) (UniProt P32298)
[28] = target: CHEK2 (human) (UniProt O96017)
Chain of CHEK2 (human) (O96017 whole entry, looked up): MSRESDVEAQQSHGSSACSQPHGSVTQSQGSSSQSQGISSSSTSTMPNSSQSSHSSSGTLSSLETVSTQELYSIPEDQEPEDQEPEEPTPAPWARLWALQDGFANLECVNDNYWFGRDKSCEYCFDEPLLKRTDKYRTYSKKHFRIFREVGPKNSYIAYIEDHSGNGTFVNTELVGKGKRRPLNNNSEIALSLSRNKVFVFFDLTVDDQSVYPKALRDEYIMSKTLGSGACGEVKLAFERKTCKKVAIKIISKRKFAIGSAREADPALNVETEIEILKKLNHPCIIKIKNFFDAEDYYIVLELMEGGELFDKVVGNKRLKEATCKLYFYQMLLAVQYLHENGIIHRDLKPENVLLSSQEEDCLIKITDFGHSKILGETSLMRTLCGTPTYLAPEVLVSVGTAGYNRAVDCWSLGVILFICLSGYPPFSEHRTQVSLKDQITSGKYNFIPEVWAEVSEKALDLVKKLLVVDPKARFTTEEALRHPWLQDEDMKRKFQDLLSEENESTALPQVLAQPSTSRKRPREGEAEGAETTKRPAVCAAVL

[29] = target: CAMK2B (human) (UniProt Q13554)
[30] = target: HIPK2 (human) (UniProt Q9H2X6)
Chain of HIPK2 (human) (Q9H2X6 whole entry, looked up): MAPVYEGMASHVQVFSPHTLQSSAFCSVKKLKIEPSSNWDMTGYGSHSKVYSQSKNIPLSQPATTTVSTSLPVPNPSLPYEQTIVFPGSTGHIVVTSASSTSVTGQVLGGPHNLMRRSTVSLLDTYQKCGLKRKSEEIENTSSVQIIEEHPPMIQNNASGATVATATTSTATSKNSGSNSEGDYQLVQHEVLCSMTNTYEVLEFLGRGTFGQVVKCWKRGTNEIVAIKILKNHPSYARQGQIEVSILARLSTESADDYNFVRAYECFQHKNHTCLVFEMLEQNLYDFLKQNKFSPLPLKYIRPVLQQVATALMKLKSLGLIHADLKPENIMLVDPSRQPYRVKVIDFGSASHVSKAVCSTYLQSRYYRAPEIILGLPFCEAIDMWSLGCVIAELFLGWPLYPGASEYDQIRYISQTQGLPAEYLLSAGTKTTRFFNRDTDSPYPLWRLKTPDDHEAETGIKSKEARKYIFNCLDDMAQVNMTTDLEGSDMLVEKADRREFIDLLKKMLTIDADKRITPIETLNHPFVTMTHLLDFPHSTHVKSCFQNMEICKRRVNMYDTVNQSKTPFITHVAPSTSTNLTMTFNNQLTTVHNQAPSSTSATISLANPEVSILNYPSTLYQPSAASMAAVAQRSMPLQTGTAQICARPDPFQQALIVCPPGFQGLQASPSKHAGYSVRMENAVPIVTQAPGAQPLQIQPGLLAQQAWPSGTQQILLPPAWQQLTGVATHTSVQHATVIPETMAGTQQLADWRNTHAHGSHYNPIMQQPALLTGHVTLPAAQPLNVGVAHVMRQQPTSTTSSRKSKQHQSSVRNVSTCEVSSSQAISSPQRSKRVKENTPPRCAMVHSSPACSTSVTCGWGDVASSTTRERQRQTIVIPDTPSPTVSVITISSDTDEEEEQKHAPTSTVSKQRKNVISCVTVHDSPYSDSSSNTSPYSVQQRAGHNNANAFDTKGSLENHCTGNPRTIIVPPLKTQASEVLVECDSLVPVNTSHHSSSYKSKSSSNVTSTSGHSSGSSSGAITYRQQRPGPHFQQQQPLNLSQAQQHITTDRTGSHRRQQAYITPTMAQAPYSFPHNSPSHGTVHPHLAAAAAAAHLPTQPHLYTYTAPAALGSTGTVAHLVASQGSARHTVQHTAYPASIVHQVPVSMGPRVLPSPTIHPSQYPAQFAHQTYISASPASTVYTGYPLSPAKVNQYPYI

[31] = target: CDK2 CCNA2 (human) (UniProt P24941+P20248)
Chain of CDK2 CCNA2 (human) (P20248 whole entry, looked up, other chains not shown): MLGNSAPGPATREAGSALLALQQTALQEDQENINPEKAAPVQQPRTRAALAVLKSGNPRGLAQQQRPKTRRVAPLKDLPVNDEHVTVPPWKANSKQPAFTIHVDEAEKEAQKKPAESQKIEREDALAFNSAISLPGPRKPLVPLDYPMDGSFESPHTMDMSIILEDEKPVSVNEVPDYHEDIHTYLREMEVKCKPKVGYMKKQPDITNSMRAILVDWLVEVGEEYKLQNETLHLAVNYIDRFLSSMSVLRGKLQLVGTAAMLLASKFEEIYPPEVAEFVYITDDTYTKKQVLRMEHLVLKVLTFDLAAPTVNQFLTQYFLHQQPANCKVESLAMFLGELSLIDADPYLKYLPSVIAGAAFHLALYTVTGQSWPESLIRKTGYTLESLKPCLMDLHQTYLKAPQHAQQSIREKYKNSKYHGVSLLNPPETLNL

[32] = target: FES (human) (UniProt P07332)
[33] = target: RPS6KA6 KD1 KD2 (human) (UniProt Q9UK32)
[34] = target: PRKACA (human) (UniProt P17612)
[35] = target: CHEK1 (human) (UniProt O14757)
[36] = target: MLTK (human) (UniProt Q9NYL2)
[37] = target: PLK1 (human) (UniProt P53350)
[38] = target: PTK6 (human) (UniProt Q13882)
[39] = target: ZAP70 (human) (UniProt P43403)
[40] = target: MAPK13 (human) (UniProt O15264)
[41] = target: SIK2 (human) (UniProt Q9H0K1)
[42] = target: TSSK2 (human) (UniProt Q96PF2)

Chain of CDK4 CCND3 (human) (P11802 whole entry, looked up): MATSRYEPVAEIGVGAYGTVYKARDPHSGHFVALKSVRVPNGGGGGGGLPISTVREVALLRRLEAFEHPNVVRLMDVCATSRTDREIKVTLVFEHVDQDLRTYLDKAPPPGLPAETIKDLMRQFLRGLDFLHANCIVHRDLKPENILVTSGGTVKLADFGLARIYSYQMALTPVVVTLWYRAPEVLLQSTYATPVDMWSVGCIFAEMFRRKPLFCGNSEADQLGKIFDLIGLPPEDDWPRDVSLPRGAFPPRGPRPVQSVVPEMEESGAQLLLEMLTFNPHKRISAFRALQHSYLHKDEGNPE
Chain of CDK4 CCND3 (human) (P30281 whole entry, looked up): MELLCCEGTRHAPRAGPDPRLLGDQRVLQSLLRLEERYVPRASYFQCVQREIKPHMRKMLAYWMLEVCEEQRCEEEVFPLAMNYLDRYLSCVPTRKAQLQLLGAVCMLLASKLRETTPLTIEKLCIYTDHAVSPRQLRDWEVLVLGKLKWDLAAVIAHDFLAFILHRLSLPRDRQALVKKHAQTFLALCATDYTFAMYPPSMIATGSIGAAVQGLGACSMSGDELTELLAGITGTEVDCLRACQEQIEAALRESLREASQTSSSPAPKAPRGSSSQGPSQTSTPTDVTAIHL

Compound: COc1cccc(-c2cc(=O)c3ccccc3o2)c1N
- residual activity [1]: 101%
- residual activity [2]: 86.1%
- residual activity [3]: 69.1%
- residual activity [4]: 96.9%
- residual activity [5]: 96.8%
- residual activity [6]: 104%
- residual activity [7]: 87.5%
- residual activity [8]: 98.3%
- residual activity [9]: 83.5%
- residual activity [10]: 92.5%
- residual activity [11]: 96.9%
- residual activity [12]: 107%
- residual activity [13]: 101%
- residual activity [14]: 97.2%
- residual activity [15]: 87%
- residual activity [16]: 101%
- residual activity [17]: 99.3%
- residual activity [18]: 99.8%
- residual activity [19]: 93.4%
- residual activity [20]: 96.3%
- residual activity [21]: 82.9%
- residual activity [22]: 65.4%
- residual activity [23]: 108%
- residual activity [24]: 92.5%
- residual activity [25]: 92.5%
- residual activity [26]: 94.8%
- residual activity [27]: 104%
- residual activity [28]: 98.8%
- residual activity [29]: 103%
- residual activity [30]: 116%
- residual activity [31]: 102%
- residual activity [32]: 94.3%
- residual activity [33]: 95.2%
- residual activity [34]: 87.7%
- residual activity [35]: 103%
- residual activity [36]: 103%
- residual activity [37]: 88.2%
- residual activity [38]: 92.6%
- residual activity [39]: 107%
- residual activity [40]: 99.8%
- residual activity [41]: 102%
- residual activity [42]: 79.7%

Compound: O=C(O)c1ccc2c3c1cccc3c(=O)n1c3ccccc3nc21
- residual activity [1]: 102%
- residual activity [2]: 109%
- residual activity [3]: 93.7%
- residual activity [4]: 79.5%
- residual activity [5]: 100%
- residual activity [6]: 114%
- residual activity [7]: 78.4%
- residual activity [8]: 76.4%
- residual activity [9]: 99.5%
- residual activity [10]: 109%
- residual activity [11]: 102%
- residual activity [12]: 100%
- residual activity [13]: 70.1%
- residual activity [14]: 43.4%
- residual activity [15]: 100%
- residual activity [16]: 103%
- residual activity [17]: 41.7%
- residual activity [18]: 65%
- residual activity [19]: 96.1%
- residual activity [20]: 104%
- residual activity [21]: 122%
- residual activity [22]: 98.4%
- residual activity [23]: 57.2%
- residual activity [24]: 93.5%
- residual activity [25]: 97%
- residual activity [26]: 98.9%
- residual activity [27]: 95.5%
- residual activity [28]: 75.2%
- residual activity [29]: 92.6%
- residual activity [30]: 101%
- residual activity [31]: 82.7%
- residual activity [32]: 98.2%
- residual activity [33]: 101%
- residual activity [34]: 99.4%
- residual activity [35]: 101%
- residual activity [36]: 100%
- residual activity [37]: 110%
- residual activity [38]: 91.1%
- residual activity [39]: 119%
- residual activity [40]: 104%
- residual activity [41]: 92.8%
- residual activity [42]: 106%

Compound: FC(F)(F)c1ccc(/C=C/c2nc(COc3ccc(CCCCn4ccnn4)cc3)co2)cc1
- residual activity [1]: 119%
- residual activity [2]: 96.2%
- residual activity [3]: 120%
- residual activity [4]: 102%
- residual activity [6]: 96.8%
- residual activity [7]: 109%
- residual activity [8]: 105%
- residual activity [9]: 100%
- residual activity [10]: 98.6%
- residual activity [11]: 103%
- residual activity [12]: 102%
- residual activity [13]: 94.8%
- residual activity [14]: 95.1%
- residual activity [15]: 87.6%
- residual activity [16]: 89.2%
- residual activity [17]: 116%
- residual activity [18]: 93.8%
- residual activity [19]: 98.1%
- residual activity [20]: 92.7%
- residual activity [21]: 101%
- residual activity [22]: 102%
- residual activity [23]: 101%
- residual activity [24]: 92.8%
- residual activity [25]: 99.7%
- residual activity [26]: 92.6%
- residual activity [27]: 102%
- residual activity [28]: 103%
- residual activity [29]: 99.3%
- residual activity [30]: 90.2%
- residual activity [31]: 87.9%
- residual activity [32]: 102%
- residual activity [33]: 100%
- residual activity [34]: 101%
- residual activity [35]: 108%
- residual activity [36]: 98.5%
- residual activity [37]: 98.3%
- residual activity [38]: 97.8%
- residual activity [39]: 115%
- residual activity [40]: 99.1%
- residual activity [41]: 103%
- residual activity [42]: 100%

Compound: N/C(=N\N=C/c1ccc(-c2cccc([N+](=O)[O-])c2)o1)N[N+](=O)[O-]
- residual activity [1]: 103%
- residual activity [2]: 88.9%
- residual activity [3]: 105%
- residual activity [4]: 90.7%
- residual activity [5]: 95.7%
- residual activity [6]: 88.1%
- residual activity [7]: 106%
- residual activity [8]: 95.7%
- residual activity [9]: 96.4%
- residual activity [10]: 86%
- residual activity [11]: 91.5%
- residual activity [12]: 102%
- residual activity [13]: 91%
- residual activity [14]: 95.6%
- residual activity [15]: 98.1%
- residual activity [16]: 107%
- residual activity [17]: 106%
- residual activity [18]: 87.9%
- residual activity [19]: 94.9%
- residual activity [20]: 99.3%
- residual activity [21]: 95.2%
- residual activity [22]: 82.4%
- residual activity [23]: 89.3%
- residual activity [24]: 101%
- residual activity [25]: 107%
- residual activity [26]: 90.9%
- residual activity [27]: 95.5%
- residual activity [28]: 104%
- residual activity [29]: 100%
- residual activity [30]: 103%
- residual activity [32]: 101%
- residual activity [33]: 96.9%
- residual activity [34]: 93.3%
- residual activity [36]: 98%
- residual activity [37]: 98.6%
- residual activity [38]: 101%
- residual activity [39]: 93.1%
- residual activity [40]: 101%
- residual activity [41]: 91.6%
- residual activity [42]: 101%

Reference: the kinase profiling compilation of Christmann-Franck et al. (2016)
